This is an account of results in US20110039693A1, “Pyrimidylmethyl Sulfonamide Compounds” (BASF SE, priority 2008, published 2011).

The test system of one data set is Puccinia recondita. The data set can be described thus: Synergistic mixture glasshouse trial: preventative control of brown rust caused by Puccinia recondita. It is filed as in vivo. Conditions: single compound, wheat, untreated control 80% diseased leaf area. Here is the method: The spray solutions were prepared in several steps: The stock solution were prepared: a mixture of acetone and/or dimethylsulfoxide and the wetting agent/emulsifier Wettol, which is based on ethoxylated alkylphenoles, in a relation (volume) solvent-emulsifier of 99 to 1 was added to 25 mg of the compound to give a total of 10 ml. Water was then added to total volume of 100 ml. This stock solution was diluted with the described solvent-emulsifier-water mixture to the given concentration.
The first two developed leaves of pot-grown wheat seedling were sprayed to run-off with an aqueous suspension, containing the concentration of active ingredient or their mixture as described below. The next day the plants were inoculated with spores of Puccinia recondita. To ensure the success the artificial inoculation, the plants were transferred to a humid chamber without light and a relative humidity of 95 to 99% and 20 to 22° C. for 24 h. Then the trial plants were cultivated for 6 days in a greenhouse chamber at 22-26° C. and a relative humidity between 65 and 70%. The extent of fungal attack on the leaves was visually assessed as % diseased leaf area.
The percentages diseased leaf area were converted into efficacies. An efficacy of 0 means that the infection level of the treated plants corresponds to that of the untreated control plants; an efficacy of 100 means that the treated plants were not infected.
The expected efficacies of active compound mixtures were determined using Colby's formula as described earlier herein.

Another data set has as its system Pyrenophora teres. Kind of data set: Synergistic mixture microtiter test: Pyrenophora teres. It is filed as cell-based. Conditions: single compound.
Another data set has as its system Septoria tritici. Kind of data set: Synergistic mixture microtiter test: leaf blotch on wheat caused by Septoria tritici. It is filed as cell-based. To be noted: single compound.
A further data set relates to Alternaria solani. The data set can be described thus: Synergistic mixture microtiter test: Alternaria solani. To be noted: single compound. It is filed as cell-based.
The subject of another data set is Phytophthora infestans. It is filed as cell-based. To be noted: single compound.

Where two headings read alike, the source gives them in different places.

Consider `Fc1ccc([C@]2(Cn3cncn3)O[C@H]2c2ccccc2Cl)cc1` (racemic) [Epoxiconazole, epoxiconazole, reference compound], for which the “Observed efficacy (%)” value in the data set on Puccinia recondita (0.25 ppm) was 0%; in the data set with Pyrenophora teres (0.25 ppm) it was 8%.

For `O=C(Nc1ccccc1-c1ccc(Cl)cc1)c1cccnc1Cl` [Boscalid, boscalid, reference compound], the “Observed efficacy (%)” value came out at 75% in the data set with Septoria tritici (4 ppm); 0% with Puccinia recondita (4 ppm); 0% with Puccinia recondita (16 ppm); 0% in the data set with Pyrenophora teres (0.016 ppm); 63% in the data set with Pyrenophora teres (0.25 ppm).

`CSc1nccc(CNS(=O)(=O)c2ccc(Oc3ncc(C(F)(F)F)cc3Cl)cc2)n1` [Example I-5]: the “Observed efficacy (%)” value in the data set with Septoria tritici (4 ppm) was determined as 22%; with Alternaria solani (0.25 ppm) it was 2%; with Pyrenophora teres (0.25 ppm), 0%; in the data set on Pyrenophora teres (4 ppm), 21%.

Broadly, the melting point is the temperature of the solid-liquid transition. Regarding `COc1nccc(CNS(=O)(=O)c2ccc(Oc3ncc(C(F)(F)F)cc3Cl)c(C)c2)n1` [Example I-17, 4-(3-chloro-5-trifluoromethyl-pyridin-2-yloxy)-N-(2-methoxy-pyrimidin-4-ylmethyl)-3-methyl-benzenesulfonamide], the melting point was found to be 138 °C.

As to `COc1nccc(CNS(=O)(=O)c2ccc(Oc3ccc(C(F)(F)F)cn3)cc2C)n1` [Example I-22], the “Observed efficacy (%)” value in the data set with Alternaria solani (0.25 ppm) is reported as 3%; in the data set with Pyrenophora teres (0.016 ppm) it was 1%.

Take `O=S(=O)(NCc1ccnc(C2CC2)n1)c1ccc(Oc2ncccc2C(F)(F)F)cc1` [Example I-27]: the “Observed efficacy (%)” value with Septoria tritici (4 ppm) is on record as 27%; in the data set with Alternaria solani (0.25 ppm), 3%; with Alternaria solani (4 ppm), 0%; in the data set with Puccinia recondita (16 ppm), 27%; in the data set with Pyrenophora teres (4 ppm), 26%.

In the case of `CCOc1nccc(CNS(=O)(=O)c2ccc(Oc3ncccc3C(F)(F)F)cc2)n1` [Example I-52], the “Observed efficacy (%)” value is recorded as 29% in the data set on Septoria tritici (4 ppm); 53% with Phytophthora infestans (16 ppm); 0% in the data set with Alternaria solani (0.25 ppm); 0% with Alternaria solani (4 ppm); 29% with Puccinia recondita (16 ppm).

In the case of `CSc1ncc(F)c(CNS(=O)(=O)c2ccc(Oc3ccc(C(F)(F)F)cn3)cc2)n1` [Example I-72], the “Observed efficacy (%)” value in the data set on Septoria tritici (4 ppm) is reported as 14%; in the data set with Alternaria solani (0.25 ppm), 3%; with Puccinia recondita (4 ppm), 0%; in the data set on Puccinia recondita (16 ppm), 0%; in the data set on Pyrenophora teres (4 ppm) it was 14%.

Consider `COc1cc(CNS(=O)(=O)c2ccc(Oc3ccc(C(F)(F)F)cn3)cc2)nc(OC)n1` [Example I-88], for which the entries for the “Observed efficacy (%)” value in the data set on Alternaria solani (0.25 ppm) and in the data set with Pyrenophora teres (0.25 ppm) were 4% and 16%, respectively.

On to `COc1cc(CNS(=O)(=O)c2ccc(Oc3ncc(C(F)(F)F)cc3Cl)cc2)nc(OC)n1` [Example I-118], for which the figures for the “Observed efficacy (%)” value in the data set on Septoria tritici (4 ppm) and in the data set on Alternaria solani (0.25 ppm) were 25% and 1%, respectively.

For the molecule `COc1nccc(CNS(=O)(=O)c2ccc(OCc3cncc(C(F)(F)F)c3)cc2)n1` [Example I-125], the results for the “Observed efficacy (%)” value in the data set with Septoria tritici (4 ppm), with Alternaria solani (0.25 ppm) and in the data set with Puccinia recondita (4 ppm) were 23%, 4% and 13%, respectively.

For the molecule `COC(=O)N(OC)c1ccccc1COc1ccn(-c2ccc(Cl)cc2)n1` [Pyraclostrobin, pyraclostrobin, reference compound], the “Observed efficacy (%)” value is 74% in the data set on Septoria tritici (0.063 ppm); 38% with Phytophthora infestans (0.25 ppm); 48% in the data set with Alternaria solani (0.063 ppm); 0% in the data set with Puccinia recondita (0.25 ppm); 0% in the data set with Pyrenophora teres (0.004 ppm).
